# In US11191820B2, “Method for inducing early T memory response with short peptides anti-tumor vaccine” (OSE IMMUNOTHERAPEUTICS, priority 2015, dated 2021):
# Tests used:
# Format in all cases: in vivo, human
# central memory T cells [1] = experiment: Cultured IFN-γ ELISPOT after 10-day in vitro stimulation of PBMC, phase 1/2 NSCLC trial of OSE-2101; design: key to net SFC of vaccine positive CTL responses: —, indicates SFC response did not meet criteria and vaccine response was negative; conditions: for Mean SFC / No. Positive Responses: 6 NSCLC patients
# In short: (§1)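 Patient PBMC (pre-treatment, Week 9, Week 18, after s.c. dosing every 3 weeks) were stimulated 10 days with 10 μg/ml of each epitope plus rIL-2 10 U/ml on days 1, 4 and 7. Cells were then tested 20 h with irradiated autologous PBMC and 10 μg/ml vaccine or wild-type peptide. Net SFC per 5×10^4 cells, irrelevant HBV peptide subtracted.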
# central memory T cells [2] = experiment: Cultured IFN-γ ELISPOT after 10-day in vitro stimulation of PBMC, phase 1/2 colon cancer trial of OSE-2101; design: key to net SFC of vaccine positive CTL responses: —, indicates SFC response did not meet criteria and vaccine response was negative; conditions: for Mean SFC: 10 colon patients
# In short: as §1
# central memory T cells [3] = experiment: Central memory T cell cultured ELISPOT, phase 2 trial in advanced NSCLC
# In short: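 Patient PBMC were pre-stimulated for 10 days with 10 μg/ml peptide plus rIL2 (10 U/ml, days 1, 4, 7), then replated at 5×10^4/well with irradiated autologous PBMC and 10 μg/ml peptide, and SFC were counted. A response was positive if >5 SFC above, and > mean+2 SD of, the irrelevant HBV epitope, and twofold the pre-vaccination response plus 2 SD.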
sequence,measurement,setting,value
KLBPVQLWV [p53.139L2B3 A],Mean SFC,central memory T cells [1]; Week 9,"25.9 SFC per 50,000 cells"
same,No. Positive Responses,central memory T cells [1]; Week 9,3
same,Mean SFC,central memory T cells [1]; Week 18,"62.0 SFC per 50,000 cells"
same,No. Positive Responses,central memory T cells [1]; Week 18,4
same,net SFC of vaccine positive CTL responses,"central memory T cells [1]; NSCLC patient 201, Week 9",—
same,net SFC of vaccine positive CTL responses,"central memory T cells [1]; NSCLC patient 201, Week 18",—
same,net SFC of vaccine positive CTL responses,"central memory T cells [1]; NSCLC patient 502, Week 9",—
same,net SFC of vaccine positive CTL responses,"central memory T cells [1]; NSCLC patient 502, Week 18",—
same,net SFC of vaccine positive CTL responses,"central memory T cells [1]; NSCLC patient 504, Week 9","18.7 SFC per 50,000 cells"
same,net SFC of vaccine positive CTL responses,"central memory T cells [1]; NSCLC patient 504, Week 18","90.3 SFC per 50,000 cells"
same,net SFC of vaccine positive CTL responses,"central memory T cells [1]; NSCLC patient 505, Week 9",—
same,net SFC of vaccine positive CTL responses,"central memory T cells [1]; NSCLC patient 505, Week 18","20.3 SFC per 50,000 cells"
same,net SFC of vaccine positive CTL responses,"central memory T cells [1]; NSCLC patient 532, Week 9","53.0 SFC per 50,000 cells"
same,net SFC of vaccine positive CTL responses,"central memory T cells [1]; NSCLC patient 532, Week 18","117.3 SFC per 50,000 cells"
same,net SFC of vaccine positive CTL responses,"central memory T cells [1]; NSCLC patient 651, Week 9","6.0 SFC per 50,000 cells"
same,net SFC of vaccine positive CTL responses,"central memory T cells [1]; NSCLC patient 651, Week 18","20.0 SFC per 50,000 cells"
same,Mean SFC,central memory T cells [2]; Week 9,"70.5 SFC per 50,000 cells"
same,Mean SFC,central memory T cells [2]; Week 18,"89.4 SFC per 50,000 cells"
same,net SFC of vaccine positive CTL responses,"central memory T cells [2]; colon patient 551, Week 9",—
same,net SFC of vaccine positive CTL responses,"central memory T cells [2]; colon patient 551, Week 18",—
same,net SFC of vaccine positive CTL responses,"central memory T cells [2]; colon patient 601, Week 9","129.0 SFC per 50,000 cells"
same,net SFC of vaccine positive CTL responses,"central memory T cells [2]; colon patient 601, Week 18","96.0 SFC per 50,000 cells"
same,net SFC of vaccine positive CTL responses,"central memory T cells [2]; colon patient 602, Week 9",—
same,net SFC of vaccine positive CTL responses,"central memory T cells [2]; colon patient 602, Week 18","22.7 SFC per 50,000 cells"
same,net SFC of vaccine positive CTL responses,"central memory T cells [2]; colon patient 603, Week 9","85.3 SFC per 50,000 cells"
same,net SFC of vaccine positive CTL responses,"central memory T cells [2]; colon patient 603, Week 18",—
same,net SFC of vaccine positive CTL responses,"central memory T cells [2]; colon patient 604, Week 9","41.0 SFC per 50,000 cells"
same,net SFC of vaccine positive CTL responses,"central memory T cells [2]; colon patient 604, Week 18","188.7 SFC per 50,000 cells"
same,net SFC of vaccine positive CTL responses,"central memory T cells [2]; colon patient 605, Week 9","9.7 SFC per 50,000 cells"
same,net SFC of vaccine positive CTL responses,"central memory T cells [2]; colon patient 605, Week 18","44.7 SFC per 50,000 cells"
same,net SFC of vaccine positive CTL responses,"central memory T cells [2]; colon patient 606, Week 9","43.7 SFC per 50,000 cells"
same,net SFC of vaccine positive CTL responses,"central memory T cells [2]; colon patient 606, Week 18","37.7 SFC per 50,000 cells"
same,net SFC of vaccine positive CTL responses,"central memory T cells [2]; colon patient 607, Week 9","114.3 SFC per 50,000 cells"
same,net SFC of vaccine positive CTL responses,"central memory T cells [2]; colon patient 607, Week 18","146.7 SFC per 50,000 cells"
same,net SFC of vaccine positive CTL responses,"central memory T cells [2]; colon patient 608, Week 9",—
same,net SFC of vaccine positive CTL responses,"central memory T cells [2]; colon patient 608, Week 18",—
same,net SFC of vaccine positive CTL responses,"central memory T cells [2]; colon patient 609, Week 9",—
same,net SFC of vaccine positive CTL responses,"central memory T cells [2]; colon patient 609, Week 18",—
same,% of patients with positive CTL/central memory T cell response,"central memory T cells [3]; phase 2, month 9",29%
same,patients with positive CTL/central memory T cell response / patients tested,"central memory T cells [3]; phase 2, month 9",2/7
same,% of patients with positive CTL/central memory T cell response,"central memory T cells [3]; phase 2, month 12",50%
same,patients with positive CTL/central memory T cell response / patients tested,"central memory T cells [3]; phase 2, month 12",2/4
same,% of patients with positive CTL/central memory T cell response,"central memory T cells [3]; phase 2, week 9",55%
same,patients with positive CTL/central memory T cell response / patients tested,"central memory T cells [3]; phase 2, week 9",6/11
same,% of patients with positive CTL/central memory T cell response,"central memory T cells [3]; phase 2, week 18",36%
same,patients with positive CTL/central memory T cell response / patients tested,"central memory T cells [3]; phase 2, week 18",4/11
same,% of patients with positive CTL/central memory T cell response,"central memory T cells [3]; phase 2, week 30",50%
same,patients with positive CTL/central memory T cell response / patients tested,"central memory T cells [3]; phase 2, week 30",3/6
